From patent publication US20210284638A1 (Saint Louis University, priority 2018, published 2021)
pIC50: −log10 of the molar value. Structures can show the parent of a compound that is named as a salt.

Legend:
[1] = target: T1, Recombinant human integrin αvβ1 (Homo sapiens, UniProt P05556+P06756); assay: Solid Phase Receptor Assay (SPRA) for αVβ1 function; format: binding; conditions: plate-bound human fibronectin
T1 construct: purchased R&D Systems 6579-AV
Method: B. Solid Phase Receptor Assay (SPRA) for αVβ1 Function
Wells were washed 3 times with 150 μL TBS+ and then 150 μL of blocking buffer (TBS+ with 1% bovine serum albumin, Sigma A7906) was added. The plate was incubated for 1 hr at 37° C. and then washed 3× with TBS+ buffer. […] Compounds were diluted to 20 μM and 1 μL was added to each well of the plate according to a standard template with each sample repeated in triplicate. After incubation for two hours at room temperature, the plate was washed 3× with 150 μL of TBS+ buffer. To each well, 50 μL of biotinylated anti-αV antibody (R&D Systems, BAF1219) at 1 μg/mL in TBS+/0.1% BSA were added and the plate covered and incubated for 1 hr at room temperature. After washing the plate 3× with 150 μL of TBS+ buffer, 50 μL of streptavidin-conjugated horseradish peroxidase (R&D Systems, DY998) diluted in TBS+ blocking buffer were added to the wells and the plate incubated for 20 min at room temperature. The plate was washed 3× with TBS+ buffer followed by 50 μL of TMB substrate (Sigma, T4444) added to each well in the dark and the plate incubated for 25 min at room temperature. 25 μL of 1.0 M phosphoric acid was added as a stop solution and the plates were read at 450 nm using a Spectramax plate reader.

[2] = target: T2, Recombinant human integrin αVβ6 (Homo sapiens, UniProt P06756+P18564); assay: Solid Phase Receptor Assay (SPRA) for αVβ6 function; format: binding; conditions: plate-bound human LAP
T2 construct: purchased R&D Systems 3817-AV
Method: E. Solid Phase Receptor Assay (SPRA) for αVβ6 Function
Wells were washed 3 times with 150 μL TBS+, and then 150 μL of blocking buffer (TBS+ with 1% bovine serum albumin, Sigma A7906) was added. The plate was incubated for 1 hr at 37° C., and then washed 3× with TBS+ buffer. […] Compounds were diluted to 20 μM and then 1 μL was added to each well of the plate according to a standard template with each sample repeated in triplicate. After incubation for two hours at room temperature, the plate was washed 3× with 150 μL of TBS+ buffer. To each well, 50 μL of biotinylated anti-αV antibody (R&D Systems, BAF1219) at 0.5 μg/mL in TBS+/0.1% BSA were added and the plate was covered and incubated for 1 hr at room temperature. After washing the plate 3× with 150 μL of TBS+ buffer, 50 μL of streptavidin-conjugated horseradish peroxidase (R&D Systems, DY998) diluted in TBS+ blocking buffer were added to the wells and the plate incubated for 20 min at room temperature. The plate was washed 3× with TBS+ buffer followed by 50 μL of TMB substrate (Sigma T4444) added to each well in the dark and the plate incubated for 10 min at room temperature. 25 μL of 1.0 M phosphoric acid was added as a stop solution and the plates were read at 450 nm using a Spectramax plate reader.

T2 sequence (P06756 31-992 limits assumed): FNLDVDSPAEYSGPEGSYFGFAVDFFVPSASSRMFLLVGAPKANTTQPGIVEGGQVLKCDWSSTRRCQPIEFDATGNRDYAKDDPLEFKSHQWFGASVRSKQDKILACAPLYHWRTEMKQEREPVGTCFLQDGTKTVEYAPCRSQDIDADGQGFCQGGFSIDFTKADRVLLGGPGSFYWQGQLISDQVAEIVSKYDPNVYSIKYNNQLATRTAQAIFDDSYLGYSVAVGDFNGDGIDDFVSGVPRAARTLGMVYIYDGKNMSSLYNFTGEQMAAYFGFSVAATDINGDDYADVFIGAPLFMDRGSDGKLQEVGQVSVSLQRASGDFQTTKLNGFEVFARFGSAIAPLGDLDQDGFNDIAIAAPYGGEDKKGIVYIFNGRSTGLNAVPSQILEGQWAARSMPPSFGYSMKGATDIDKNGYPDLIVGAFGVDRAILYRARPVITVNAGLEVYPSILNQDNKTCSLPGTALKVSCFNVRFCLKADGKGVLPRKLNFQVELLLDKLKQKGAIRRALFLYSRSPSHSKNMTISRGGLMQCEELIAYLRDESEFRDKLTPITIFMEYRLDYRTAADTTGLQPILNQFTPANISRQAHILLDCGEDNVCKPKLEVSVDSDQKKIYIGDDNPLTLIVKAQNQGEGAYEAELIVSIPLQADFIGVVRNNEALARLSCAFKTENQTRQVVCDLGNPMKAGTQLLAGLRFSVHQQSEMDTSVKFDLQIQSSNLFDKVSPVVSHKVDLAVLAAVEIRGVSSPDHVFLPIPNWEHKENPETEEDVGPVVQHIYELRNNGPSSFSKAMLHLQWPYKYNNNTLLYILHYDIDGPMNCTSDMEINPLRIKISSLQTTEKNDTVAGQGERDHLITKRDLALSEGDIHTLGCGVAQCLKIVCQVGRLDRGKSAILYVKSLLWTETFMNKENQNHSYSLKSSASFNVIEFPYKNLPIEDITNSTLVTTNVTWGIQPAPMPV
T2 sequence (P18564 22-707 limits assumed): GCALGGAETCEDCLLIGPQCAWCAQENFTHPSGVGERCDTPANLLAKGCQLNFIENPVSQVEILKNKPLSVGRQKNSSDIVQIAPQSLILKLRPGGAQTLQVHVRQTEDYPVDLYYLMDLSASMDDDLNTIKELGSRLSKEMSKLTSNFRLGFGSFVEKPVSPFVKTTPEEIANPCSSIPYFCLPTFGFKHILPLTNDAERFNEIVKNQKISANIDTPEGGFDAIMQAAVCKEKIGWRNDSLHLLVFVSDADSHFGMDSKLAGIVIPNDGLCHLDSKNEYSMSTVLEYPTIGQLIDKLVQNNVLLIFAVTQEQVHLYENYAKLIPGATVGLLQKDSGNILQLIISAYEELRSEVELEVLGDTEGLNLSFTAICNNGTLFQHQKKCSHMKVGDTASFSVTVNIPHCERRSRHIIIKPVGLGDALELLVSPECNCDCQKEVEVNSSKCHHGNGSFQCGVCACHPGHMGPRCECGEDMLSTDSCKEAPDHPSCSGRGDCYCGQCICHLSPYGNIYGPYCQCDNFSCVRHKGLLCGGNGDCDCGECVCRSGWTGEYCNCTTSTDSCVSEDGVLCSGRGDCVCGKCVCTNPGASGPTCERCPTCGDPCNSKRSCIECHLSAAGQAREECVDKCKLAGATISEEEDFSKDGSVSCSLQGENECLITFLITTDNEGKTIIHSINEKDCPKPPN
T1 sequence (P06756 31-992 limits assumed): as the sequence (P06756 31-992 limits assumed) above
T1 sequence (P05556 21-728 limits assumed): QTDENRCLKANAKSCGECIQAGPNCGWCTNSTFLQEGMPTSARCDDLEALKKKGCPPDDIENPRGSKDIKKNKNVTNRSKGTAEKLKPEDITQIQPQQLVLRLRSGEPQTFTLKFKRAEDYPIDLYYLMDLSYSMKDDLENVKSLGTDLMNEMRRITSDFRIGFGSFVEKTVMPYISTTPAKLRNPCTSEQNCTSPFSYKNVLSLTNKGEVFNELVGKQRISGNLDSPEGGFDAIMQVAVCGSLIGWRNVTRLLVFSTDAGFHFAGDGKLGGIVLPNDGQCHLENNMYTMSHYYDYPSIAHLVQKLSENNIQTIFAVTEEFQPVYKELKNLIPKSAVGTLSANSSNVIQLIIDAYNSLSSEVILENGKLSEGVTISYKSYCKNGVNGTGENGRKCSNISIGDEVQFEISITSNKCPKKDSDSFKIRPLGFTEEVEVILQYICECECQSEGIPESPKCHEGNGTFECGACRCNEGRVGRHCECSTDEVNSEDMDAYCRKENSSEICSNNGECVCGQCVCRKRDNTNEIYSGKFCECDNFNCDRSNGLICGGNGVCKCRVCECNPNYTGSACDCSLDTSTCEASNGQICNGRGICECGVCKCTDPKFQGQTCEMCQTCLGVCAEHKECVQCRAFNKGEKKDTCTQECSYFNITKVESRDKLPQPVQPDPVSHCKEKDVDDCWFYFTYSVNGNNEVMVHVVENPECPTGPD

Molecule `COc1ccc(C2=CCOCC2)cc1C(CC(=O)O)Cc1cc(OCCc2ccc3c(n2)NCCC3)n(C)n1` (stereo not shown) [Example 42] has a pIC50 [1] of 8.70 and a pIC50 [2] of 7.77.

Molecule `COc1ccc(C2CCOCC2)cc1C(CC(=O)O)Cc1cc(OCCc2ccc3c(n2)NCCC3)n(C)n1` (stereo not shown) [Example 46, 3-(2-methoxy-5-(tetrahydro-2H-pyran-4-yl)phenyl)-4-(1-methyl-5-(2-(5,6,7,8-tetrahydro-1,8-naphthyridin-2-yl)ethoxy)-1H-pyrazol-3-yl)butanoic acid] has a pIC50 [1] of 8.55 and a pIC50 [2] of 6.59.

`Cn1nc(CC(CC(=O)O)c2cc(C(C)(C)C#N)cc(C(C)(C)C#N)c2)cc1OCCc1ccc2c(n1)NCCC2` (stereo not shown) [Example 41, 3-(3,5-bis(2-cyanopropan-2-yl)phenyl)-4-(1-methyl-5-(2-(5,6,7,8-tetrahydro-1,8-naphthyridin-2-yl)ethoxy)-1H-pyrazol-3-yl)butanoic acid trifluoroacetate] gave a pIC50 [1] of 9.00 and a pIC50 [2] of 7.43.

`CC(C)(C)c1ccc(C#N)c(C(CC(=O)O)Cc2csc(CCCc3ccc4c(n3)NCCC4)n2)c1` (stereo not shown) [Example 33, 3-(5-tert-butyl-2-cyano-phenyl)-4-[2-[3-(5,6,7,8-tetrahydro-1,8-naphthyridin-2-yl)propyl]thiazol-4-yl]butanoic acid] gave a pIC50 [1] of 8.70 and a pIC50 [2] of 6.82.

For `COCC1(c2ccc(OC)c([C@H](CC(=O)O)Cc3cc(OCCc4ccc5c(n4)NCCC5)n(C)n3)c2)CCOCC1` [Example 48, (S)-3-(2-methoxy-5-(4-(methoxymethyl)tetrahydro-2H-pyran-4-yl)phenyl)-4-(1-methyl-5-(2-(5,6,7,8-tetrahydro-1,8-naphthyridin-2-yl)ethoxy)-1H-pyrazol-3-yl)butanoic acid], the pIC50 [1] was 8.62 and the pIC50 [2] was 5.55.

For `COc1ccc(C(C)(C)C)cc1C(CC(=O)O)Cc1csc(CCCc2ccc3c(n2)NCCC3)n1` (stereo not shown) [Example 28, 3-(5-(tert-butyl)-2-methoxyphenyl)-4-(2-(3-(5,6,7,8-tetrahydro-1,8-naphthyridin-2-yl)propyl)thiazol-4-yl)butanoic acid], the pIC50 [1] was 8.22 and the pIC50 [2] was 6.51.

`COCC1(c2cc(C(CC(=O)O)Cc3cc(OCCc4ccc5c(n4)NCCC5)n(C)n3)cc(C(C)(C)C)c2)CCOCC1` (stereo not shown) [Example 1, 3-[3-tert-butyl-5-[4-(methoxymethyl)tetrahydropyran-4-yl]phenyl]-4-[1-methyl-5-[2-(5,6,7,8-tetrahydro-1,8-naphthyridin-2-yl)ethoxy]pyrazol-3-yl]butanoic acid] showed a pIC50 [1] of 8.22 and a pIC50 [2] of 6.70.

For `Cn1nc(CC(CC(=O)O)c2cc3c(c(C(C)(C)C)c2)OCCO3)cc1OCCc1ccc2c(n1)NCCC2` (stereo not shown) [Example 16, 3-(8-(tert-butyl)-2,3-dihydrobenzo[b][1,4]dioxin-6-yl)-4-(1-methyl −5-(2-(5,6,7,8-tetrahydro-1,8-naphthyridin-2-yl)ethoxy)-1H-pyrazol-3-yl) butanoic acid], the pIC50 [1] was 8.30 and the pIC50 [2] was 7.72.

`Cn1nc(CC(CC(=O)O)c2cc(C(C)(C)C)cc(C(C)(C)C#N)c2)cc1OCCc1ccc2c(n1)NCCC2` (stereo not shown) [Example 9, 3-[3-tert-butyl-5-(1-cyano-1-methyl-ethyl)phenyl]-4-[1-methyl-5-[2-(5,6,7,8-tetrahydro-1,8-naphthyridin-2-yl)ethoxy]pyrazol-3-yl]butanoic acid] gave a pIC50 [1] of 8.70 and a pIC50 [2] of 6.82.

In the case of `Cn1nc(CC(CC(=O)O)c2cc3c(c(C(C)(C)C)c2)OCO3)cc1OCCc1ccc2c(n1)NCCC2` (stereo not shown) [Example 15], the pIC50 [1] was 8.52 and the pIC50 [2] was 7.22.

`COc1ccc(C(CC(=O)O)Cc2cc(OCCc3ccc4c(n3)NCCC4)n(C)n2)cc1F` (stereo not shown) [Example 44, 3-(3-fluoro-4-methoxyphenyl)-4-(1-methyl-5-(2-(5,6,7,8-tetrahydro-1,8-naphthyridin-2-yl)ethoxy)-1H-pyrazol-3-yl)butanoic acid] was tested, and the pIC50 [1] was 8.49 and the pIC50 [2] was 7.36.

`COc1ccc(C2=CCOCC2)cc1C(CC(=O)O)Cc1csc(CCCc2ccc3c(n2)NCCC3)n1` (stereo not shown) [Example 37, 3-[5-(3,6-dihydro-2H-pyran-4-yl)-2-methoxy-phenyl]-4-[2-[3-(5,6,7,8-tetrahydro-1,8-naphthyridin-2-yl)propyl]thiazol-4-yl]butanoic acid] showed a pIC50 [1] of 8.52 and a pIC50 [2] of 7.09.

Molecule `COc1c(C(C)(C)C)cc(C(CC(=O)O)Cc2csc(CCCc3ccc4c(n3)NCCC4)n2)cc1C(C)(C)C` (stereo not shown) [Example 29, 3-(3,5-di-tert-butyl-4-methoxyphenyl)-4-(2-(3-(5,6,7,8-tetrahydro-1,8-naphthyridin-2-yl)propyl)thiazol-4-yl)butanoic acid] has a pIC50 [1] of 8.15 and a pIC50 [2] of 6.35.

In the case of `Cc1cc(C)n(-c2cccc(C(CC(=O)O)Cc3csc(CCc4ccc5c(n4)NCCC5)n3)c2)n1` (stereo not shown) [Example 38, 3-(3-(3,5-dimethyl-1H-pyrazol-1-yl)phenyl)-4-(2-(2-(5,6,7,8-tetrahydro-1,8-naphthyridin-2-yl)ethyl)thiazol-4-yl)butanoic acid], the pIC50 [1] was 7.82 and the pIC50 [2] was 6.62.

Molecule `COc1cc(C(CC(=O)O)Cc2cc(OCCc3ccc4c(n3)NCCC4)n(C)n2)cc(C23CC4CC(CC(C4)C2)C3)c1OCc1ccccc1` (stereo not shown) [Example 13, 3-[3-(1-adamantyl)-4-benzyloxy-5-methoxy-phenyl]-4-[1-methyl-5-[2-(5,6,7,8-tetrahydro-1,8-naphthyridin-2-yl)ethoxy]pyrazol-3-yl]butanoic acid] has a pIC50 [1] of 7.68 and a pIC50 [2] of 6.77.

`COc1ccc(C2COC2)cc1C(CC(=O)O)Cc1cc(OCCc2ccc3c(n2)NCCC3)n(C)n1` (stereo not shown) [Example 23, 3-[2-methoxy-5-(oxetan-3-yl)phenyl]-4-[1-methyl-5-[2-(5,6,7,8-tetrahydro-1,8-naphthyridin-2-yl)ethoxy]pyrazol-3-yl]butanoic acid] showed a pIC50 [1] of 8.10 and a pIC50 [2] of 6.85.

`CC(C)(C)c1cc(C(CC(=O)O)Cc2csc(CCCc3ccc4c(n3)NCCC4)n2)cc(C(C)(C)C)c1` (stereo not shown) [Example 27, 3-(3,5-di-tert-butylphenyl)-4-(2-(3-(5,6,7,8-tetrahydro-1,8-naphthyridin-2-yl)propyl)thiazol-4-yl)butanoic acid] showed a pIC50 [1] of 7.96 and a pIC50 [2] of 6.00.

For `COc1ccc(C(F)(F)F)cc1C(CC(=O)O)Cc1csc(CCCc2ccc3c(n2)NCCC3)n1` (stereo not shown) [Example 35, 3-[2-methoxy-5-(trifluoromethyl)phenyl]-4-[2-[3-(5,6,7,8-tetrahydro-1,8-naphthyridin-2-yl)propyl]thiazol-4-yl]butanoic acid], the pIC50 [1] was 8.30 and the pIC50 [2] was 6.70.

Molecule `Cn1nc(C[C@@H](CC(=O)O)c2cc3c(c(C(C)(C)C)c2)OCO3)cc1OCCc1ccc2c(n1)NCCC2` [Example 47] has a pIC50 [1] of 9.04 and a pIC50 [2] of 7.82.

`COc1c(C(C)(C)C)cc(C(CC(=O)O)Cc2cc(OCCc3ccc4c(n3)NCCC4)n(C)n2)cc1C(C)(C)C` (stereo not shown) [Example 10, 3-(3,5-di-tert-butyl-4-methoxyphenyl)-4-(1-methyl-5-(2-(5,6,7,8-tetrahydro-1,8-naphthyridin-2-yl)ethoxy)-1H-pyrazol-3-yl)butanoic acid] gave a pIC50 [1] of 8.40 and a pIC50 [2] of 6.89.

`COc1ccc(C2=CCOCC2)cc1[C@H](CC(=O)O)Cc1csc(CCCc2ccc3c(n2)NCCC3)n1` [Example 37A, (S)-3-(5-(3,6-dihydro-2H-pyran-4-yl)-2-methoxyphenyl)-4-(2-(3-(5,6,7,8-tetrahydro-1,8-naphthyridin-2-yl)propyl)thiazol-4-yl)butanoic acid trifluoroacetate] showed a pIC50 [1] of 9.05 and a pIC50 [2] of 7.51.

Molecule `COc1cc(C(CC(=O)O)Cc2cc(OCCc3ccc4c(n3)NCCC4)n(C)n2)cc(C23CC4CC(CC(C4)C2)C3)c1OC` (stereo not shown) [Example 14, 3-[3-(1-adamantyl)-4,5-dimethoxy-phenyl]-4-[1-methyl-5-[2-(5,6,7,8-tetrahydro-1,8-naphthyridin-2-yl)ethoxy]pyrazol-3-yl]butanoic acid] has a pIC50 [1] of 8.05 and a pIC50 [2] of 6.77.

In the case of `CC(C)c1cc(C#N)cc(C(CC(=O)O)Cc2cc(OCCc3ccc4c(n3)NCCC4)n(C)n2)c1` (stereo not shown) [Example 2, 3-(3-cyano-5-isopropylphenyl)-4-(1-methyl-5-(2-(5,6,7,8-tetrahydro-1,8-naphthyridin-2-yl)ethoxy)-1H-pyrazol-3-yl)butanoic acid trifluoroacetic acid], the pIC50 [1] was 8.05 and the pIC50 [2] was 7.70.
